Here are results for 4 molecules from ChEMBL document CHEMBL2034842, “Synthesis, anti-Candida activity, and cytotoxicity of new (4-(4-iodophenyl)thiazol-2-yl)hydrazine derivatives” (Eur J Med Chem, 2012).

In brackets after ≈: the same amount, converted by molar mass. Bounds are passed on as bounds.

Holding throughout (assay type): functional
The test system of one experiment is Escherichia coli. The experiment in a line: Antibacterial activity against Escherichia coli after 18 to 22 hrs by […].
The subject of another experiment is Staphylococcus aureus. The experiment in a line: Antibacterial activity against Staphylococcus aureus after 18 to 22 hrs by […].
The test system of the next experiment is Proteus vulgaris. The experiment in a line: Antibacterial activity against Proteus vulgaris after 18 to 22 hrs by […].
For a further experiment, the system named is Candida albicans. The experiment can be described thus: Antifungal activity against 10 strains of Candida albicans after 24 hrs by […].
Another experiment relates to Klebsiella aerogenes. The experiment in a line: Antibacterial activity against Enterobacter aerogenes after 18 to 22 hrs by […].
For another experiment, the system named is Candida tropicalis. The experiment can be described thus: Antifungal activity against 4 strains of Candida tropicalis after 24 hrs by […].
Another experiment concerns Enterococcus faecalis. The experiment can be described thus: Antibacterial activity against Enterococcus faecalis after 18 to 22 hrs by […].
A further experiment relates to Candida parapsilosis. The experiment can be described thus: Antifungal activity against 4 strains of Candida parapsilosis after 24 hrs by […]. The settings on record: Lodderomyces parapsilosis.
For a further experiment, the system named is Pichia kudriavzevii. The experiment in a line: Antifungal activity against 3 strains of Candida krusei after 24 hrs by […].
The subject of a further experiment is [Candida] sake. The experiment can be described thus: Antifungal activity against 2 strains of Candida sake after 24 hrs by […]. The following applies: Fermentozyma sake.
The next experiment has as its system Klebsiella pneumoniae. The experiment in a line: Antibacterial activity against Klebsiella pneumoniae after 18 to 22 hrs by […].
The subject of the next experiment is Streptococcus pyogenes. The experiment in a line: Antibacterial activity against Streptococcus pyogenes after 18 to 22 hrs by […].
The subject of another experiment is Staphylococcus warneri. The experiment in a line: Antibacterial activity against Staphylococcus warneri after 18 to 22 hrs by […].
A further experiment deals with Nakaseomyces glabratus. The experiment can be described thus: Antifungal activity against 4 strains of Candida glabrata after 24 hrs by […].

In the case of `Ic1ccc(-c2csc(NN=C3CCCCCC3)n2)cc1`, the MIC is 16 mg/L (≈ 38.9 µM) in the experiment on Escherichia coli; greater than 128 mg/L against Staphylococcus aureus; 16 mg/L (≈ 38.9 µM) against Proteus vulgaris; 0.25 mg/L (≈ 0.608 µM) against Candida albicans; 16 mg/L (≈ 38.9 µM) in the experiment with Klebsiella aerogenes; 0.5 mg/L (≈ 1.22 µM) in the experiment on Candida tropicalis. The MIC against Enterococcus faecalis is 32 mg/L (≈ 77.8 µM); against Candida parapsilosis, 2 mg/L (≈ 4.86 µM); against Pichia kudriavzevii, 64 mg/L (≈ 156 µM); in [Candida] sake, 64 mg/L (≈ 156 µM); against Klebsiella pneumoniae it was greater than 128 mg/L; in the experiment with Streptococcus pyogenes it was 32 mg/L (≈ 77.8 µM). For the same molecule, the values for the MIC with Staphylococcus warneri and against Nakaseomyces glabratus were greater than 128 mg/L and 2 mg/L (≈ 4.86 µM), respectively.

Consider `C/C(=N\Nc1nc(-c2ccc(I)cc2)cs1)c1cccs1`, for which the MIC in the experiment on Escherichia coli is greater than 128 mg/L; against Staphylococcus aureus, 32 mg/L (≈ 75.2 µM); with Proteus vulgaris, greater than 128 mg/L; in the experiment with Candida albicans, 2 mg/L (≈ 4.7 µM); against Klebsiella aerogenes, greater than 128 mg/L; with Candida tropicalis it was 2 mg/L (≈ 4.7 µM). In addition, the MIC against Enterococcus faecalis is greater than 128 mg/L; against Candida parapsilosis, 0.5 mg/L (≈ 1.18 µM); against Pichia kudriavzevii it was 2 mg/L (≈ 4.7 µM); in [Candida] sake it was 4 mg/L (≈ 9.4 µM); in the experiment with Klebsiella pneumoniae, greater than 128 mg/L; in the experiment with Streptococcus pyogenes, greater than 128 mg/L. Also, the results for the MIC against Staphylococcus warneri and against Nakaseomyces glabratus were 32 mg/L (≈ 75.2 µM) and 4 mg/L (≈ 9.4 µM), respectively.

For the molecule `C/C(=N\Nc1nc(-c2ccc(I)cc2)cs1)c1cccnc1`, the MIC was 32 mg/L (≈ 76.1 µM) in the experiment with Escherichia coli; greater than 128 mg/L against Staphylococcus aureus; 16 mg/L (≈ 38.1 µM) against Proteus vulgaris; 0.25 mg/L (≈ 0.595 µM) against Candida albicans; greater than 128 mg/L in the experiment with Klebsiella aerogenes; 0.5 mg/L (≈ 1.19 µM) against Candida tropicalis. In addition, the minimum inhibitory concentration (MIC) with Enterococcus faecalis is 32 mg/L (≈ 76.1 µM); in the experiment on Candida parapsilosis, 2 mg/L (≈ 4.76 µM); in the experiment on Pichia kudriavzevii, 64 mg/L (≈ 152 µM); in experiment [Candida] sake, 64 mg/L (≈ 152 µM); in the experiment on Klebsiella pneumoniae it was 32 mg/L (≈ 76.1 µM); against Streptococcus pyogenes, 32 mg/L (≈ 76.1 µM). Moreover, the MIC was greater than 128 mg/L against Staphylococcus warneri and 2 mg/L (≈ 4.76 µM) against Nakaseomyces glabratus.

For the molecule `CC1CCC(=NNc2nc(-c3ccc(I)cc3)cs2)CC1` (stereo unspecified), the MIC with Escherichia coli was greater than 128 mg/L; with Staphylococcus aureus, 32 mg/L (≈ 77.8 µM); in the experiment with Proteus vulgaris, greater than 128 mg/L; in the experiment with Candida albicans, 0.5 mg/L (≈ 1.22 µM); in the experiment on Klebsiella aerogenes, greater than 128 mg/L; against Candida tropicalis it was 2 mg/L (≈ 4.86 µM). For the same molecule, the MIC with Enterococcus faecalis was 4 mg/L (≈ 9.72 µM); in the experiment with Candida parapsilosis, 2 mg/L (≈ 4.86 µM); against Pichia kudriavzevii, 64 mg/L (≈ 156 µM); in [Candida] sake it was 64 mg/L (≈ 156 µM); with Klebsiella pneumoniae it was greater than 128 mg/L; with Streptococcus pyogenes it was 2 mg/L (≈ 4.86 µM). In addition, the MIC was determined as 32 mg/L (≈ 77.8 µM) in the experiment on Staphylococcus warneri and 2 mg/L (≈ 4.86 µM) in the experiment on Nakaseomyces glabratus.

The MIC is the lowest concentration that inhibits growth of the organism.
